We go through 28 molecules from ChEMBL document CHEMBL1857833, “Screening and optimization of specific chemical series against human African Trypanosomiasis (HAT)”.

In brackets after ≈: the same amount, converted by molar mass.

A short description of data set [1]: DNDI: Cytotoxicity against L929 mouse fibroblasts, 72 hour. Format: toxicity, cell-based. To be noted: mouse, L929 mouse fibroblasts.
In another data set the test system is Trypanosoma brucei. Briefly: DNDI: Inhibition of Human African Trypanosomiasis, SBRI 427, in vitro. The format is functional, organism-based. The note with it: Trypanosoma brucei, SBRI 427; read-out: IC50.

`N#Cc1nc(-c2ccccc2)oc1N` yielded an IC50 at 72 h in data set [1] above 10 µg/mL. Moreover, the IC50 with Trypanosoma brucei was above 5 µg/mL.
In turn, `COc1ccccc1CNC(c1ccccc1)c1nc(-c2ccccc2)c(N2CCOCC2)o1` (stereo unspecified) gave an IC50 at 72 h in data set [1] above 10 µg/mL. Also, the IC50 in the data set with Trypanosoma brucei is above 5 µg/mL.
In the case of `COc1cccc(C(NCc2ccc(C)cc2)c2nc(Cc3ccccc3)c(N3CCOCC3)o2)c1` (stereo unspecified), in data set [1], the IC50 at 72 h was above 10 µg/mL. For the same molecule, the IC50 in the data set with Trypanosoma brucei was above 5 µg/mL.
For `c1ccc(-c2nc(C(NCCCn3ccnc3)C3CC3)oc2N2CCOCC2)cc1` (stereo unspecified), in data set [1], the IC50 at 72 h was above 10 µg/mL. Besides, the IC50 in the data set with Trypanosoma brucei was above 5 µg/mL.
In data set [1], `CCCCc1ccc(-c2nc(CN3CCN(c4ccccc4)CC3)co2)cc1` returned an IC50 at 72 h above 10 µg/mL. Besides, in the data set on Trypanosoma brucei, the IC50 is above 5 µg/mL.
`Cc1ccc(CNC(c2nc(Cc3ccccc3)c(N3CCOCC3)o2)c2ccccc2C)cc1` (stereo unspecified) came in with an IC50 at 72 h in data set [1] above 10 µg/mL. In addition, in the data set with Trypanosoma brucei, the half-inhibitory concentration (IC50) was above 5 µg/mL.
Molecule `CCOCCCNC(c1nc(C(C)C)c(N2CCOCC2)o1)C1CC1` (stereo unspecified) gave a half-inhibitory concentration (IC50) at 72 h in data set [1] above 10 µg/mL. Moreover, the IC50 with Trypanosoma brucei is above 5 µg/mL.
Consider `Cc1ccc(CNC(c2nc(-c3ccccc3)c(N3CCOCC3)o2)C2CC2)cc1` (stereo unspecified), for which, in data set [1], the IC50 at 72 h is above 10 µg/mL. Further, the IC50 with Trypanosoma brucei is above 5 µg/mL.
In turn, `COc1ccc(CNC(CC(C)C)c2nc(C(C)C)c(N3CCOCC3)o2)cc1` (stereo unspecified) returned an IC50 at 72 h in data set [1] above 10 µg/mL. Also, the IC50 with Trypanosoma brucei is above 5 µg/mL.
As to `c1ccc(-c2nc(C(NCc3ccco3)C3CC3)oc2N2CCOCC2)cc1` (stereo unspecified), in data set [1], the IC50 at 72 h was above 10 µg/mL. Also, the IC50 in the data set on Trypanosoma brucei is above 5 µg/mL.
With `c1ccc(Cc2nc(C(NCc3ccc4c(c3)OCO4)C3CC3)oc2N2CCOCC2)cc1` (stereo unspecified), the IC50 at 72 h in data set [1] is above 10 µg/mL. Also, the IC50 with Trypanosoma brucei was above 5 µg/mL.
On to `CCCCCC(C)NCc1coc(-c2ccc(OC(F)F)cc2)n1` (stereo unspecified), for which the IC50 at 72 h in data set [1] was 3.82 µg/mL (≈ 11.3 µM). The IC50 in the data set on Trypanosoma brucei is 2.15 µg/mL (≈ 6.35 µM).
`CCCCCC(C)NCc1coc(-c2ccc(OC(F)(F)C(F)F)cc2)n1` (stereo unspecified): the IC50 at 72 h in data set [1] stood at 4.3 µg/mL (≈ 11.1 µM). In addition, in the data set on Trypanosoma brucei, the IC50 amounted to 1.42 µg/mL (≈ 3.66 µM).
For `COc1cccc(OC)c1CNCc1coc(-c2ccc(OC(C)C)cc2)n1`, half-maximal inhibition in data set [1] (IC50 at 72 h) required 4.15 µg/mL (≈ 10.9 µM). For the same molecule, the IC50 in the data set on Trypanosoma brucei is 2.88 µg/mL (≈ 7.53 µM).
The molecule `CCCCCC(C)NCc1coc(-c2cc(C(F)(F)F)cc(C(F)(F)F)c2)n1` (stereo unspecified) had an IC50 at 72 h in data set [1] above 10 µg/mL. Also, the IC50 with Trypanosoma brucei is 2.06 µg/mL (≈ 5.04 µM).
Regarding `CCCCc1ccc(-c2nc3ncccc3o2)cc1`, the IC50 at 72 h in data set [1] was above 10 µg/mL. In the data set with Trypanosoma brucei, the half-maximal inhibitory concentration (IC50) was above 5 µg/mL.
As to `CCCCCC(C)NCc1coc(-c2ccc(C)c(C)c2)n1` (stereo unspecified), it took 1.86 µg/mL (≈ 6.19 µM) to reach half-maximal inhibition in data set [1] (IC50 at 72 h). Besides, the 50% inhibitory concentration (IC50) with Trypanosoma brucei was 0.74 µg/mL (≈ 2.46 µM).
On to `Cc1ccc(CNC(c2nc(Cc3ccccc3)c(N3CCOCC3)o2)c2ccccc2F)cc1` (stereo unspecified), for which the IC50 at 72 h in data set [1] was above 10 µg/mL. Besides, the IC50 in the data set with Trypanosoma brucei is above 5 µg/mL.
In data set [1], `CCCCc1ccc(-c2nc(CNCc3ccncc3)co2)cc1` showed an IC50 at 72 h above 10 µg/mL. Further, the IC50 in the data set on Trypanosoma brucei was above 5 µg/mL.
`Cc1ccc(CNC(c2cccc(Cl)c2)c2nc(Cc3ccccc3)c(N3CCOCC3)o2)cc1` (stereo unspecified) showed a concentration for half-maximal inhibition (IC50) at 72 h in data set [1] above 10 µg/mL. Moreover, in the data set on Trypanosoma brucei, the IC50 was above 5 µg/mL.
`CCCCc1ccc(-c2nc(CNCc3ccccn3)co2)cc1`: the IC50 at 72 h in data set [1] came to 9.31 µg/mL (≈ 29 µM). Further, the IC50 in the data set with Trypanosoma brucei was above 5 µg/mL.
`CCCCOc1ccc(-c2nc(CNCC(C)(C)C)co2)cc1` yielded an IC50 at 72 h in data set [1] of 1.8 µg/mL (≈ 5.69 µM). Further, the IC50 in the data set on Trypanosoma brucei worked out at 0.9 µg/mL (≈ 2.84 µM).
The matching figures for `Cc1ccc(CNC(c2cccc(C#N)c2)c2nc(Cc3ccccc3)c(N3CCOCC3)o2)cc1` (stereo unspecified): above 10 µg/mL and above 5 µg/mL.
As to `CCCCCc1ccc(-c2nc(CNC(C)CCCCC)co2)cc1` (stereo unspecified), it took 1.01 µg/mL (≈ 2.95 µM) to reach half-maximal inhibition in data set [1] (IC50 at 72 h). In addition, in the data set on Trypanosoma brucei, the IC50 is 1.09 µg/mL (≈ 3.18 µM).
In the case of `CCCCCC(C)NCc1coc(-c2ccc([N+](=O)[O-])cc2)n1` (stereo unspecified), the IC50 at 72 h in data set [1] amounted to 7.08 µg/mL (≈ 22.3 µM). Moreover, the IC50 in the data set with Trypanosoma brucei came to 4.99 µg/mL (≈ 15.7 µM).
Turning to `CCCCCC(C)NCc1coc(C2CCCCC2)n1` (stereo unspecified), the IC50 at 72 h in data set [1] was 10 µg/mL (≈ 35.9 µM). The half-maximal inhibitory concentration (IC50) in the data set with Trypanosoma brucei is 2.54 µg/mL (≈ 9.12 µM).
Taken in the same sequence, the figures for `CCOCCCNC(c1nc(Cc2ccccc2)c(N2CCOCC2)o1)C1CC1` (stereo unspecified) were above 10 µg/mL and above 5 µg/mL.
Take `CCCCc1ccc(-c2nc(COCC)co2)cc1`: the IC50 at 72 h in data set [1] was above 10 µg/mL. In addition, the IC50 with Trypanosoma brucei was above 5 µg/mL.
